Columns and labels:
TNFa/TNFRI interaction = TNFa/TNFRI interaction (Homo sapiens, UniProt P01375); assay: TNFa/TNFRI interaction displacement test; assay type: binding; conditions: for Displacement (%): compounds at 50 μM, human TNFRI 100 ng/ml; for Displacement EC50 TNFa in presence of compound: Difference: Compound EC50 minus SPD304 EC50;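 as to Displacement EC50 TNFa in presence of compound: Difference: SPD304 reference at 20 µM final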
Method in brief: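 Plates coated overnight at 4° C with human TNFRI (100 ng/ml) and blocked with 2% BSA, then test mixtures were incubated overnight at 4° C. Bound cytokine detected with biotinylated anti-cytokine antibody (2 h, 37° C) and avidin-HRP, read as OD at 450 nm.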

IL-6 = IL-6 (Homo sapiens, UniProt P05231); assay: Immunoassay binding test, IL-6 (gp130 receptor, IL-6Ra present); conditions: IL-6Ra 200 ng/ml
IL-6, sequence (P05231 30-212, species assumed): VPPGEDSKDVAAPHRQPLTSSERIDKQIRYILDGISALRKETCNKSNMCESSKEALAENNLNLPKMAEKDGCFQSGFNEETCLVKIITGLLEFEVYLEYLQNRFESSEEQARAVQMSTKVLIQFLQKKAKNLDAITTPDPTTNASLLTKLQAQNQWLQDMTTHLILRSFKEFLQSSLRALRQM
Method in brief: (§1)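 Compounds (final 100 to 0.78 μM) were preincubated 2 h at 37 °C with a fixed amount of cytokine; for IL-6, IL-6Ra was also present at 200 ng/ml final. Mixtures were then incubated overnight at 4 °C on receptor-coated plates. Bound cytokine was detected with biotinylated anti-cytokine antibody and avidin-HRP, read as OD at 450 nm.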

IL-4 = biological target: T1, IL-4 (Homo sapiens, UniProt P05112); assay: Immunoassay binding test, IL-4; conditions: for IC50: IL-4 400 ng/ml, receptor 100 ng/ml, read-out: BINDING IL4 IC50
T1 sequence (P05112 25-153): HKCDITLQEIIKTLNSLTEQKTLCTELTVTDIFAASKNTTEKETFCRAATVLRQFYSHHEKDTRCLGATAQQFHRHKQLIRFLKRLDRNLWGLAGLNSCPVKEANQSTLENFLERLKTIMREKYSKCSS
Method in brief: as §1

TNFα = TNFα (Homo sapiens, UniProt P01375); assay: Immunoassay binding test, TNFa; conditions: compounds 100 to 0.78 μM; TNFα 10 ng/ml, receptor 100 ng/ml; read-out: BINDING TNF IC50
TNFα, sequence (P01375 77-233 limits assumed, species assumed): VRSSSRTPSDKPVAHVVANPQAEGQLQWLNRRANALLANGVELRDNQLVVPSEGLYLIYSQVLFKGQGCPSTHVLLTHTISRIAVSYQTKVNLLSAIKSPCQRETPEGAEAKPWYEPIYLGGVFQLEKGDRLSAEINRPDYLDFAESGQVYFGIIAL
Method in brief: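 ELISA-type binding test: receptor-coated plates blocked with 2% BSA, then cytokine (six-point dilution series) preincubated 2 h at 37 °C and bound overnight at 4 °C. Detection used biotinylated anti-cytokine antibody and avidin-HRP, read as OD at 450 nm. For IL-6, IL-6Ra was present at 200 ng/ml final.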

IL-13 = IL-13 (Homo sapiens, UniProt P35225); assay: Immunoassay binding test, IL-13; conditions: for IC50: IL-13 400 ng/ml, receptor 100 ng/ml, read-out: BINDING IL13 IC50
IL-13, sequence (P35225 25-146, species assumed): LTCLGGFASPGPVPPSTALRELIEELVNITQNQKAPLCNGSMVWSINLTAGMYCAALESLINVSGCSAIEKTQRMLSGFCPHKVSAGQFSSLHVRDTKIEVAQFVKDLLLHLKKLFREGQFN
Method in brief: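 Receptor-coated plates; compounds (100 to 0.78 μM final) preincubated 2 h at 37° C with fixed cytokine, then bound to receptor overnight at 4° C. Bound cytokine detected with biotinylated anti-cytokine antibody and avidin-HRP, OD 450 nm.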

TNFa/TNFRI interaction, sequence (P01375 77-233 limits assumed): as the sequence (P01375 77-233 limits assumed, species assumed) above

Row | SMILES | Displacement (%) (TNFa/TNFRI interaction) | BINDING IL6 % Neutra at 100 μM (IL-6) [%] | BINDING IL4 % Neutra at 100 μM (IL-4) [%] | IC50 (IL-4) [µM] | IC50 (TNFα) [µM] | BINDING IL13 % Neutra at 100 μM (IL-13) [%] | IC50 (IL-13) [µM] | Displacement EC50 TNFa in presence of compound: Difference (TNFa/TNFRI interaction)
1 | CN(CCCCCN(Cc1cccnc1F)Cc1cn(S(=O)(=O)c2ccccc2)c2ccccc12)C1CCCCC1 [Compound 52, N1-cyclohexyl-N5-((2-fluoropyridin-3-yl)methyl)-N1-methyl-N5-((1-(phenylsulfonyl)-1H-indol-3-yl)methyl)pentane-1,5-diamine] | 145 | 0 | 91.7 | 5 | 9.1 | 88.1 | 15.8 | 
2 | CN(CCCCN(Cc1ccn(S(=O)(=O)c2ccccc2)c1)Cc1cccnc1F)C1CCCCC1 [Compound 91, N1-cyclohexyl-N4-((2-fluoropyridin-3-yl)methyl)-N1-methyl-N4-((1-(phenylsulfonyl)-1H-pyrrol-3-yl)methyl)butane-1,4-diamine] | 87 | 0 | 87.5 | 16.4 | 27.5 | 35.8 | > 50 | 
3 | CN(CCCCCN(Cc1cccnc1)Cc1cn(-c2cccc(C(F)(F)F)c2)c2ccccc12)C1CCCCC1 [Compound 40] | 157 | 16.4 | 96.4 | 2.7 | 19.9 | 94.2 | 11.2 | 4.2 ng/mL
4 | CN(CCN(Cc1cccnc1)Cc1cn(-c2cccc(C(F)(F)F)c2)c2ccccc12)C1CCCCC1 [Compound 32] | 125 | 15.5 | 97.7 | 3.9 | 15.9 | 76.3 | > 50 | 
5 | O=S(=O)(c1ccccc1)n1cc(CN(CCCCCNCc2cccnc2F)Cc2cccnc2F)c2ccccc21 [Compound 62] | 105 | 0 | 81.5 | 7.8 | 26.8 | 67.9 | 38.5 | 
6 | CN(CCCCN(Cc1ccncc1)Cc1cn(S(=O)(=O)c2ccccc2)c2ccccc12)C1CCCCC1 [Compound 18] | 145 | 16.3 | 98.4 | 5.3 | 2.2 | 94.2 | 80.9 | Difference = 6 ng/ml
7 | NS(=O)(=O)NCCCCN(Cc1cccnc1F)Cc1cn(S(=O)(=O)c2ccccc2)c2ccccc12 [Compound 77] | 35 | 0 | 13.7 | > 100 | > 50 | 0 |  | 
8 | CN(CCCCN(Cc1cccc(F)n1)Cc1cn(S(=O)(=O)c2ccccc2)c2ccccc12)C1CCCCC1 [Compound 51, N1-cyclohexyl-N4-((6-fluoropyridin-2-yl)methyl)-N1-methyl-N4-((1-(phenylsulfonyl)-1H-indol-3-yl)methyl)butane-1,4-diamine] | 153 | 0 | 87.2 | 6.7 | 7.9 | 89.4 | 25.9 | 
9 | FC(F)(F)c1cccc(-n2cc(CN(CCCCCNC3CCCCC3)Cc3cccnc3)c3ccccc32)c1 [Compound 38] | 139 | 24.9 | 95.7 | 3.9 | > 50 | 98.9 | 1.5 | 
10 | O=S(=O)(c1ccccc1)n1cc(CN(Cc2cccnc2)CC2CCCN(C3CCCCC3)C2)c2ccccc21 (centres unmarked) [Compound 3] | 196 | 5 | 96.4 | 6.6 | 4.6 | 96.9 |  | 7.4 ng/mL
11 | O=S(=O)(c1ccccc1)n1cc(CN(CCCCNC2CCCCC2)Cc2cccnc2)c2ccccc21 [Compound 15] | 167 | 11.5 | 99 | 6.3 | 8.1 | 94.8 | > 50 | 5.1 ng/mL
12 | CN(CCCCN(Cc1cccnc1F)Cc1cn(S(=O)(=O)c2ccccc2)c2ccccc12)C1CCC1 [Compound 70, N′-cyclobutyl-N^4-((2-fluoropyridin-3-yl)methyl)-N′-methyl-N^4-((1-(phenylsulfonyl)-1H-indol-3-yl)methyl)butane-1,4-diamine] | 126 | 1 | 92.4 | 13.5 | 11.5 | 69.6 | > 100 | 
13 | O=S(=O)(c1ccccc1)n1cc(CN(CCCCNCc2cccnc2F)Cc2cn(S(=O)(=O)c3ccccc3)c3ccccc23)c2ccccc21 [Compound 88] | 5 | 9 | 69.0 | 5.3 | > 50 | 8 |  | 
14 | CN(CCCCN(Cc1ccncc1)Cc1cn(-c2cccc(C(F)(F)F)c2)c2ccccc12)C1CCCCC1 [Compound 24] | 158 | 3.6 | 98.8 | 3.1 | 13.5 | 85.3 | > 50 | 6.3 ng/mL
15 | O=S(=O)(c1ccccc1)n1cc(CN(CCCCNC2CCCCC2)Cc2cccnc2F)c2ccccc21 [Compound 43, N1-cyclohexyl-N4-((2-fluoropyridin-3-yl)methyl)-N4-((1-(phenylsulfonyl)-1H-indol-3-yl)methyl)butane-1,4-diamine] | 87 | 0 | 93.2 | 6.7 | 8.8 | 85.1 | > 50 | 
16 | NCCCCN(Cc1cn(S(=O)(=O)c2ccccc2)c2ccccc12)Cc1cn(S(=O)(=O)c2ccccc2)c2ccccc12 [Compound 87] | 28 | 6 | 95.5 | 4.4 | 18.8 | 94.2 | 8.2 | 
17 | FC(F)(F)c1cccc(-n2cc(CN(CCCNC3CCCCC3)Cc3ccncc3)c3ccccc32)c1 [Compound 12] | 172 | 1.6 | 96.3 | 12.3 | 6.8 | 58.2 | > 50 | 14.2 ng/mL
